Consider 26 molecules from patent publication US4581460A, “Substituted 1-benzoyl-2-phenyliminoimidazolidine derivatives” (Chemie Linz Aktiengesellschaft, priority 1982, dated 1986).

A word on the ED50: it is the dose at which the effect has come halfway, by size or by number of responders.

Structures are written as SMILES. Read-outs that look alike come from different tables or passages of the source.

Assay [1] deals with phenyl-p-quinone-induced writhing syndrome of the mouse. In words: Writhing test (phenyl-p-quinone-induced writhing syndrome of the mouse). The note with it: dose protecting 50% of the animals. In kind it is in vivo. Here is the method: 60 minutes after oral application of the test compounds mice were injected intraperitoneally with 0.3 ml of a 0.02% phenyl-p-quinone solution in a alcohol-water mixture (1:25 v/v). After the phenyl-p-quinone injection each mouse was observed during a span of 20 minutes.
The ED50 values (antiwrithing potency) were computed according to the method of N. R. Thompsom and C. S. Weil (Biometrics 8, 1952, 51-54, 249-263). The ED50 value refers to the dose (mg of test compound/kg of mouse) protecting 50% of the animals from pain in the writhing test.
On the technique in general: In writhing tests, fewer writhes than in controls are read as antinociception.

For assay [2] the following is noted: U.S. Pat. No. 4,142,051; cited from earlier work.
For assay [3] the following is noted: U.S. Pat. No. 3,988,345; U.S. Pat. No. 4,389,403; cited from earlier work.
[4] abbreviates: Mus musculus, oral, 60 min before i.p. phenyl-p-quinone, read-out: ED50 (antiwrithing potency).
Where [5] appears, read: po, writhing test, mouse, read-out: ED50 in the writhing test.

Take `COc1ccc(C(=O)N2CCNC2=Nc2c(Cl)cccc2Cl)cc1OC` [1-(3,4-dimethoxybenzoyl)-2-(2,6-dichlorophenylimino)-imidazolidine]: in assay [1] (setting [4]), the 50% effective dose (ED50) was 4.36 mg/kg.
Regarding `COc1ccc(C(=O)N2CCNC2=Nc2c(C)cccc2Cl)cc1OC` [1-(3,4-dimethoxybenzoyl)-2-(2-chloro-6-methylphenylimino)-imidazolidine], the 50% effective dose (ED50) in assay [1] (setting [4]) worked out at 4.42 mg/kg.
For the molecule `Cc1ccc(C(=O)N2CCNC2=Nc2c(Cl)cccc2Cl)cc1F` [1-(3-fluoro-4-methylbenzoyl)-2-(2,6-dichlorophenylimino)-imidazolidine], the ED50 in assay [1] (setting [4]) is 0.5 mg/kg.
Same read-out and setting: then `Cc1cc(C(=O)N2CCNC2=Nc2c(Cl)cccc2Cl)ccc1[N+](=O)[O-]` [1-(3-methyl-4-nitrobenzoyl)-2-(2,6-dichlorophenylimino)-imidazolidine], with 0.68 mg/kg.
Consider `O=C(C1CC=CCC1)N1CCNC1=Nc1c(Cl)cccc1Cl` (centres unmarked) [1-(cyclohex-3-en-1-oyl)-2-(2,6-dichlorophenylimino)-imidazolidine], for which the “analgesic properties (prior art)” value in assay [2] is listed as “exhibit analgesic properties”.
As for `CS(=O)(=O)c1ccc(C(=O)N2CCNC2=Nc2c(Cl)cccc2Cl)cc1` [1-(p-methylsulfonylbenzoyl)-2-(2,6-dichlorophenylimino)-imidazolidine], in assay [1] (setting [4]), the ED50 stood at 0.75 mg/kg.
Still for that read-out and setting: then `CCCOc1ccc(C(=O)N2CCNC2=Nc2c(Cl)cccc2Cl)cc1` [1-(p-n-propoxybenzoyl)-2-(2,6-dichlorophenylimino)-imidazolidine], with 0.46 mg/kg; and `O=C(c1cccc(Cl)c1)N1CCNC1=Nc1c(Cl)cccc1Cl` [1-m-chlorobenzoyl-2-(2,6-dichlorophenylimino)-imidazolidine], with 0.81 mg/kg.
Still for that read-out and setting: under `N#Cc1cccc(C(=O)N2CCNC2=Nc2c(Cl)cccc2Cl)c1` [1-m-cyanobenzoyl-2-(2,6-dichlorophenylimino)-imidazolidine] stands 0.25 mg/kg; under `O=C(c1cccc(F)c1)N1CCNC1=Nc1cccc(Cl)c1Cl` [1-m-fluorobenzoyl-2-(2,3-dichlorophenylimino)-imidazolidine], 2.08 mg/kg; under `O=C(c1ccc(Cl)cc1)N1CCNC1=Nc1cccc(Cl)c1Cl` [1-p-chlorobenzoyl-2-(2,3-dichlorophenylimino)-imidazolidine], 1.26 mg/kg.
In the case of `O=C(c1ccc(Cl)cc1)N1CCNC1=Nc1ccc(Cl)cc1Cl` [1-p-chlorobenzoyl-2-(2,4-dichlorophenylimino)-imidazolidine], in assay [1] (setting [4]), the ED50 was 3.54 mg/kg.
As for `N#Cc1ccc(C(=O)N2CCNC2=Nc2c(Cl)cccc2Cl)cc1` [1-p-cyanobenzoyl-2-(2,6-dichlorophenylimino)-imidazolidine], in assay [1] (setting [5]), the ED50 amounted to 0.55 mg/kg.
Regarding `CCOc1ccc(C(=O)N2CCNC2=Nc2c(Cl)cccc2Cl)cc1` [1-p-ethoxybenzoyl-2-(2,6-dichlorophenylimino)-imidazolidine], the ED50 in assay [1] (setting [4]) stood at 0.98 mg/kg.
On the same count and under the same terms, then `O=C(c1ccc(F)cc1)N1CCNC1=Nc1cccc(Cl)c1Cl` [1-p-fluorobenzoyl-2-(2,3-dichlorophenylimino)-imidazolidine], with 1.15 mg/kg; and `O=C(c1ccc(F)cc1)N1CCNC1=Nc1cc(Cl)ccc1Cl` [1-p-fluorobenzoyl-2-(2,5-dichlorophenylimino)-imidazolidine], with 10 mg/kg.
On the same count and under the same terms, under `O=C(c1ccc(F)cc1)N1CCNC1=Nc1c(Cl)cccc1Cl` [1-p-fluorobenzoyl-2-(2,6-dichlorophenylimino)-imidazolidine] stands 0.81 mg/kg; under `Cc1cccc(Cl)c1N=C1NCCN1C(=O)c1ccc(F)cc1` [1-p-fluorobenzoyl-2-(2-chloro-6-methylphenylimino)imidazolidine], 1 mg/kg; under `CC(C)Oc1ccc(C(=O)N2CCNC2=Nc2c(Cl)cccc2Cl)cc1` [1-p-isopropoxybenzoyl-2-(2,6-dichlorophenylimino)-imidazolidine], 0.54 mg/kg.
`COc1ccc(C(=O)N2CCNC2=Nc2cccc(Cl)c2Cl)cc1` [1-p-methoxybenzoyl-2-(2,3-dichlorophenylimino)-imidazolidine]: the ED50 in assay [1] (setting [4]) is 0.99 mg/kg.
Turning to `COc1ccc(C(=O)N2CCNC2=Nc2c(Cl)cccc2Cl)cc1` [1-p-methoxybenzoyl-2-(2,6-dichlorophenylimino)-imidazolidine], the ED50 in assay [1] (setting [4]) was 0.63 mg/kg.
On to `CS(=O)(=O)c1ccc(C(=O)N2CCNC2=Nc2cccc(Cl)c2Cl)cc1` [1-p-methylsulfonylbenzoyl-2-(2,3-dichlorophenylimino)-imidazolidine], for which the ED50 in assay [1] (setting [4]) was found to be 1.04 mg/kg.
In the case of `CCCCOc1ccc(C(=O)N2CCNC2=Nc2cccc(Cl)c2Cl)cc1` [1-p-n-butoxybenzoyl-2-(2,3-dichlorophenylimino-imidazolidine], the “ED50 (antiwrithing potency)” value in assay [1] (oral, 60 min before i.p. phenyl-p-quinone) is given as 4.49 mg of test compound/kg of mous.
As for `O=C(c1ccc([N+](=O)[O-])cc1)N1CCNC1=Nc1ccc(Cl)cc1Cl` [1-p-nitrobenzoyl-2-(2,4-dichlorophenylimino)-imidazolidine], in assay [1] (setting [4]), the ED50 was 1.77 mg/kg.
As to `CC(C)=CCN1CCC2(C)c3cc(O)ccc3CC1C2C` (centres unmarked) [Pentazocin, reference compound], the ED50 in assay [1] (setting [5]) was found to be 168 mg/kg.
On to `O=C(c1ccccc1)N1CCNC1=Nc1c(Cl)cccc1Cl` [benclonidine, 1-benzoyl-2-(2,6-dichlorophenylimino)-imidazolidine], for which, in assay [3], the “antihypertensive / hypotensive effect (prior art)” value is “marked antihypertensive effect”.
